Data published in ChEMBL document CHEMBL5042521, “A Structure-based Design Approach for Generating High Affinity BRD4 D1-Selective Chemical Probes” (J Med Chem, 2022).

Experiments:
[1] = target: Bromodomain-containing protein 2 (Homo sapiens, UniProt P25440)
Description: Binding affinity to BRD2 D1 (unknown origin) assessed as dissociation constant by isothermal titration calorimetry

[2] = target: Bromodomain-containing protein 4 (Homo sapiens, UniProt O60885)
Description: Binding affinity to BRD4 D2 (unknown origin) assessed as dissociation constant by isothermal titration calorimetry

Chain of Bromodomain-containing protein 2 (P25440 whole entry): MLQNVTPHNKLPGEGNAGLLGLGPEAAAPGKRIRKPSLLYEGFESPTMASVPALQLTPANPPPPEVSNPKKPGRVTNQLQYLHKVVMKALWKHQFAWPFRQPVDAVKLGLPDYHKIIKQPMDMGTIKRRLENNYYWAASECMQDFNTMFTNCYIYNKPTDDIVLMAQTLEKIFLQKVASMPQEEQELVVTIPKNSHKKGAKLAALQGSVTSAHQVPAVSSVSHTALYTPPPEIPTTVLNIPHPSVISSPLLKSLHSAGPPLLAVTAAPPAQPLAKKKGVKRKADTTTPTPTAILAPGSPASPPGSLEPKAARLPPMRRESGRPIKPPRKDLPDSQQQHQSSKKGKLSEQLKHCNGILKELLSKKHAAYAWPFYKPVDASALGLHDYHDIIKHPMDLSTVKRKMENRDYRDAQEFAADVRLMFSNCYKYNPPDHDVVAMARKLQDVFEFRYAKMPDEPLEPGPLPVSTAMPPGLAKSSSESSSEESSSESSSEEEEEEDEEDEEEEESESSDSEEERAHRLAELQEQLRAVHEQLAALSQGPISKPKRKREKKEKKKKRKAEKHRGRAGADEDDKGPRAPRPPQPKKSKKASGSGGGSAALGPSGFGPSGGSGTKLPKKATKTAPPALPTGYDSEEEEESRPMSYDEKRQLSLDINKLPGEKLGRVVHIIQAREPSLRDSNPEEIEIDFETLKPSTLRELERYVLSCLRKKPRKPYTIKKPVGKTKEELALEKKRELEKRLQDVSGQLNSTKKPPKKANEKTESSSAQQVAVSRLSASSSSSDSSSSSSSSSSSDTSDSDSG

## Cc1ccc(C(C)C)cc1Oc1nccc(-c2c(-c3ccc(C(F)(F)F)cc3)ncn2C2CCN(CCN(C)C)CC2)n1
[1]
  Kd: Not Active
[2]
  Kd: Not Active

## Cc1ccc(C(C)C)cc1Oc1nccc(-c2c(-c3ccc(C(F)(F)F)cc3)ncn2[C@H]2CCN(CCN(C)C)C2)n1
[1]
  Kd: Not Active
[2]
  Kd: Not Active
